The source of these data is PMC9516332 (Frontiers in Oncology, 2022).

What all share (experiment): Kinase panel profiling at 1 µmol/L (MSA or IMAP), percentage inhibition
Holding throughout (type): biochemical

Assay [1] deals with T1, panel of 255 wild-type kinases (Homo sapiens, UniProt O15146).
T1 sequence (O15146 24-869): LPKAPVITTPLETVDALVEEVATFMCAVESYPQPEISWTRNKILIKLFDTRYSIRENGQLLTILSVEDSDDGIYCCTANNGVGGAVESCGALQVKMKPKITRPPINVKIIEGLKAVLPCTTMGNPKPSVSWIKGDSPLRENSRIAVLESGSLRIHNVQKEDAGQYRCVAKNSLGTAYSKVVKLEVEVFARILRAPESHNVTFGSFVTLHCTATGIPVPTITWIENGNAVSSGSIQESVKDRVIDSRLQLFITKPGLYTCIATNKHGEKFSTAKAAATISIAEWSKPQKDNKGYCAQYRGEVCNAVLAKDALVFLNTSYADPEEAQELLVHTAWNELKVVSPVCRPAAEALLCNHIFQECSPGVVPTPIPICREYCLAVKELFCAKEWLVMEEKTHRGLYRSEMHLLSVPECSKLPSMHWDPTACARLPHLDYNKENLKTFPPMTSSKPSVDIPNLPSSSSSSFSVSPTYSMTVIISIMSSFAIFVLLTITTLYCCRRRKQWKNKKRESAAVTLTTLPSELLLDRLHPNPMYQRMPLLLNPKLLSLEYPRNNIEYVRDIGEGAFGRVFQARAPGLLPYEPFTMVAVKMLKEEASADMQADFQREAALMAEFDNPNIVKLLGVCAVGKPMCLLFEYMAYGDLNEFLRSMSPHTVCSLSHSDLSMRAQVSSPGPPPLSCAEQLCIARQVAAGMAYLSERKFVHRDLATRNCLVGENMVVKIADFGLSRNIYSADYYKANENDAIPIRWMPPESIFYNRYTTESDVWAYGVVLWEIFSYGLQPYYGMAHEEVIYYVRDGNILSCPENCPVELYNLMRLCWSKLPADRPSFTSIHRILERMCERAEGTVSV
Particulars: read-out: %-inhibition, MUSK.

The target of assay [2] is panel of 255 wild-type kinases (Homo sapiens, UniProt P07947). Particulars: read-out: %-inhibition at 1 µmol/L, YES.
Assay [3] has as its target panel of 255 wild-type kinases (Homo sapiens, UniProt P31749). Particulars: read-out: %-inhibition AKT1.
Assay [4] deals with panel of 255 wild-type kinases (Homo sapiens, UniProt P54756). The following applies: read-out: %-inhibition at 1 µmol/L, EPHA5.
Assay [5] concerns the target panel of 255 wild-type kinases (Homo sapiens, UniProt P57059). Particulars: read-out: %-inhibition at 1 µmol/L, SIK.
In assay [6] the target is panel of 255 wild-type kinases (Homo sapiens, UniProt Q96SB4). Particulars: read-out: %-inhibition at 1 µmol/L, SRPK1.
Assay [7] deals with T2, panel of 255 wild-type kinases (Homo sapiens, UniProt Q9NRA0).
T2 sequence (Q9NRA0 1-654): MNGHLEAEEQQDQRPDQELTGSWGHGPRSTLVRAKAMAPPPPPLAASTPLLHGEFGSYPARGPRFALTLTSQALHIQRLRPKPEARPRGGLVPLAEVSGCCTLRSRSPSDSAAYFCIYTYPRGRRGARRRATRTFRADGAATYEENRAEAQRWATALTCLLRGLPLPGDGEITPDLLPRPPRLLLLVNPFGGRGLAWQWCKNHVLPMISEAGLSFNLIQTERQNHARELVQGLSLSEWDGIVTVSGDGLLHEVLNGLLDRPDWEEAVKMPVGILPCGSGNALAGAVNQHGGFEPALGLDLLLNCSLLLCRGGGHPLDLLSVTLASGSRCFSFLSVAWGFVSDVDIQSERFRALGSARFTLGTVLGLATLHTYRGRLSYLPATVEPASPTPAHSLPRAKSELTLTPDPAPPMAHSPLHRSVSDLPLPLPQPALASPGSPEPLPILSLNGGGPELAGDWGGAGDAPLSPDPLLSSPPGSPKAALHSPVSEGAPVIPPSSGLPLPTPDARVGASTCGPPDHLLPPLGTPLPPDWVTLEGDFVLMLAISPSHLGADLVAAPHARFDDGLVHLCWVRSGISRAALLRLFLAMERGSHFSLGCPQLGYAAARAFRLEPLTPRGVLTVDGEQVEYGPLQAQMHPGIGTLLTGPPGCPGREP
The following applies: read-out: %-inhibition at 1 µmol/L, SPHK2.

[8] abbreviates: MUSK, 1 µmol/L single concentration.
[9] abbreviates: kinase YES, 1 µmol/L single concentration.
Where [10] appears, read: AKT1 kinase assay, 1 µmol/L single concentration.
The mark [11] stands for this setting: kinase EPHA5, 1 µmol/L single concentration.
Where [12] appears, read: kinase SIK, 1 µmol/L single concentration.
Where [13] appears, read: kinase SRPK1, 1 µmol/L single concentration.
Setting [14] is: kinase SPHK2, 1 µmol/L single concentration.

Like-named read-outs stand apart in the source and are kept apart here.

On to `Cn1cc(-c2cc3c(N4CCN(c5ncc([C@@](C)(N)c6ccc(F)cc6)cn5)CC4)ncnn3c2)cn1` [avapritinib], for which the inhibition at 1 µM in assay [1] (setting [8]) was 63%; in assay [2] (setting [9]), 83%; in assay [3] (setting [10]), -9%; in assay [4] (setting [11]), 41%; in assay [5] (setting [12]), 37%; in assay [6] (setting [13]), -12%. Further, the inhibition at 1 µM in assay [7] (setting [14]) was determined as 0.914%.

On to `C[C@H](Nc1ncnc2nc[nH]c12)c1cc2cccc(Cl)c2c(=O)n1-c1ccccc1` [duvelisib], for which the inhibition at 1 µM in assay [1] (setting [8]) was -4.45%; in assay [2] (setting [9]), -2.44%; in assay [3] (setting [10]), -6%; in assay [4] (setting [11]), 0.787%; in assay [5] (setting [12]) it was -1.9%; in assay [6] (setting [13]) it was 4%. In assay [7] (setting [14]), the inhibition at 1 µM worked out at 11%.

Regarding `COc1cc2ncnc(Nc3ccc(F)c(Cl)c3)c2cc1NC(=O)/C=C/CN1CCCCC1` [dacomitinib], the inhibition at 1 µM in assay [1] (setting [8]) is 22%; in assay [3] (setting [10]), -22%; in assay [4] (setting [11]), 34%; in assay [5] (setting [12]) it was 40%; in assay [6] (setting [13]), -9.5%; in assay [7] (setting [14]), 7.54%.

Regarding `CCN1CCN(c2ccc(Nc3cc(N(C)C(=O)Nc4c(Cl)c(OC)cc(OC)c4Cl)ncn3)cc2)CC1` [infigratinib], the inhibition at 1 µM is 24% in assay [1] (setting [8]); 77% in assay [2] (setting [9]); -12% in assay [3] (setting [10]); -8% in assay [4] (setting [11]); 30% in assay [5] (setting [12]); -0.85% in assay [6] (setting [13]). The inhibition at 1 µM in assay [7] (setting [14]) is 2%.

As for `Cn1cnc2c(F)c(Nc3ccc(Br)cc3Cl)c(C(=O)NOCCO)cc21` [selumetinib], the inhibition at 1 µM in assay [1] (setting [8]) is 7%; in assay [2] (setting [9]) it was 14%; in assay [3] (setting [10]), -11%; in assay [4] (setting [11]), -12%; in assay [5] (setting [12]), -3%; in assay [6] (setting [13]) it was 6%. For the same molecule, in assay [7] (setting [14]), the inhibition at 1 µM is -4%.

Take `CNC(=O)c1ccc(-c2cnc3ncc(Cc4ccc5ncccc5c4)n3n2)cc1F` [capmatinib]: the inhibition at 1 µM in assay [1] is 1.33%; in assay [2] it was 1.32%; in assay [3], -10%; in assay [4], -13%; in assay [5], -6.33%; in assay [6], -6%. Moreover, in assay [7], the inhibition at 1 µM is -2%.

As for `COC(=O)N[C@@H](C)CNc1nccc(-c2cn(C(C)C)nc2-c2cc(Cl)cc(NS(C)(=O)=O)c2F)n1` [encorafenib], the inhibition at 1 µM was -1.72% in assay [1] (setting [8]); 3.55% in assay [2] (setting [9]); -2% in assay [3] (setting [10]); -2.32% in assay [4] (setting [11]); 2.23% in assay [5] (setting [12]); -5% in assay [6] (setting [13]). Besides, the inhibition at 1 µM in assay [7] (setting [14]) is -12%.

As for `Cc1cc(Nc2ncnc3ccc(NC4=NC(C)(C)CO4)cc23)ccc1Oc1ccn2ncnc2c1` [tucatinib], the inhibition at 1 µM in assay [1] (setting [8]) was 2.26%; in assay [2] (setting [9]), 3.64%; in assay [3] (setting [10]), -9%; in assay [4] (setting [11]), -13%; in assay [5] (setting [12]), 0.717%; in assay [6] (setting [13]), -3%. In addition, in assay [7] (setting [14]), the inhibition at 1 µM stood at 0.368%.

Regarding `C=CC(=O)N1CCC([C@@H]2CCNc3c(C(N)=O)c(-c4ccc(Oc5ccccc5)cc4)nn32)CC1` [zanubrutinib], the inhibition at 1 µM is -1.31% in assay [1] (setting [8]); -13% in assay [3] (setting [10]); 0.0392% in assay [4] (setting [11]); -2% in assay [5] (setting [12]); -6% in assay [6] (setting [13]); -6.64% in assay [7] (setting [14]).

For the molecule `Cn1cnc2c(F)c(Nc3ccc(Br)cc3F)c(C(=O)NOCCO)cc21` [binimetinib], the inhibition at 1 µM is -4.46% in assay [1] (setting [8]); 2.16% in assay [2] (setting [9]); -5% in assay [3] (setting [10]); -2.36% in assay [4] (setting [11]); 0.277% in assay [5] (setting [12]); -3.37% in assay [6] (setting [13]). In addition, the inhibition at 1 µM in assay [7] (setting [14]) is -7.55%.

For `COc1ccc(CN2C3CC2CN(c2ccc(-c4cc(OCC(C)(C)O)cn5ncc(C#N)c45)cn2)C3)cn1` [selpercatinib], the inhibition at 1 µM in assay [1] (setting [8]) is 10%; in assay [2] (setting [9]) it was 84%; in assay [3] (setting [10]), -10%; in assay [4] (setting [11]), 69%; in assay [5] (setting [12]), 9%; in assay [6] (setting [13]) it was -9%. The inhibition at 1 µM in assay [7] (setting [14]) is -3.75%.

Take `CCN1C(=O)N(c2c(F)c(OC)cc(OC)c2F)Cc2cnc3[nH]c(CN4CCOCC4)cc3c21` [pemigatinib]: the inhibition at 1 µM in assay [1] (setting [8]) was 2.72%; in assay [2] (setting [9]), 24%; in assay [3] (setting [10]) it was -12%; in assay [4] (setting [11]), -2%; in assay [5] (setting [12]), 22%; in assay [6] (setting [13]), -12%. Besides, the inhibition at 1 µM in assay [7] (setting [14]) is -5.31%.

As for `CN1CCN(c2ccc(C(=O)Nc3n[nH]c4ccc(Cc5cc(F)cc(F)c5)cc34)c(NC3CCOCC3)c2)CC1` [entrectinib], the inhibition at 1 µM was 100% in assay [1] (setting [8]); 98% in assay [2] (setting [9]); -9% in assay [3] (setting [10]); 53% in assay [4] (setting [11]); 7.49% in assay [5] (setting [12]); 2.16% in assay [6] (setting [13]). For the same molecule, the inhibition at 1 µM in assay [7] (setting [14]) was 20%.

As for `CO[C@]1(C(=O)N[C@@H](C)c2ccc(-n3cc(F)cn3)nc2)CC[C@H](c2nc(C)cc(Nc3cc(C)[nH]n3)n2)CC1` [pralsetinib], the inhibition at 1 µM in assay [1] (setting [8]) is 73%; in assay [2] (setting [9]) it was 95%; in assay [3] (setting [10]), -12%; in assay [4] (setting [11]), 74%; in assay [5] (setting [12]), 1.69%; in assay [6] (setting [13]) it was -4%. Besides, the inhibition at 1 µM in assay [7] (setting [14]) was -2.48%.

Take `C[C@H]1Oc2cc(cnc2N)-c2c(nn(C)c2C#N)CN(C)C(=O)c2ccc(F)cc21` [lorlatinib]: the inhibition at 1 µM is 47% in assay [1] (setting [8]); 28% in assay [2] (setting [9]); -4% in assay [3] (setting [10]); 38% in assay [4] (setting [11]); -1.87% in assay [5] (setting [12]); 5.65% in assay [6] (setting [13]). The inhibition at 1 µM in assay [7] (setting [14]) amounted to 10%.

As to `CCn1c(=O)c(-c2cc(NC(=O)Nc3ccccc3)c(F)cc2Br)cc2cnc(NC)cc21` [ripretinib], the inhibition at 1 µM in assay [1] (setting [8]) was 11%; in assay [2] (setting [9]), 81%; in assay [3] (setting [10]), -6%; in assay [4] (setting [11]), 100%; in assay [5] (setting [12]) it was 66%; in assay [6] (setting [13]) it was -13%. Further, the inhibition at 1 µM in assay [7] (setting [14]) is -10%.
